Experimental data taken from article PMC9865853, “Structural Insights Uncover the Specific Phosphoinositide Recognition by the PH1 Domain of Arap3” (International Journal of Molecular Sciences, 2023).

Molecular target: T1, Arap3-PH1 (Homo sapiens, UniProt Q8WWN8)
T1 construct: first PH domain, residues 284-385, C-terminal 6xHis tag (pET22b), expressed in E. coli BL21(DE3)
T1 sequence (Q8WWN8 284-385): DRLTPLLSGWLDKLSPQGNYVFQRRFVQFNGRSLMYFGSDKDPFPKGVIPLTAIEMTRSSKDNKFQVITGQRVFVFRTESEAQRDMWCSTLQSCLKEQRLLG
Assay: SPR (Biacore T200, CM5, protein immobilised), one-site fit
Format: binding

Kd [µM]	Compound
~61.7	CCCC(=O)OC[C@H](COP(=O)(O)O[C@@H]1[C@H](O)[C@H](O)[C@@H](OP(=O)(O)O)[C@H](OP(=O)(O)O)[C@H]1O)OC(=O)CCC [diC4-PI(4,5)P2]
~11.4	CCCC(=O)OC[C@H](COP(=O)(O)O[C@H]1[C@H](O)[C@@H](OP(=O)(O)O)[C@H](OP(=O)(O)O)[C@@H](OP(=O)(O)O)[C@H]1O)OC(=O)CCC [diC4-PI(3,4,5)P3]
